Data reported in article PMC9101642 (Molecules, 2022).
Marks after values point to notes of the source that are not given here.

What was measured:
[1] = system: progesterone receptor (PR); test: ERα functional antagonism cell assay (PR as biomarker) in MCF-7; assay type: cell-based; settings: Homo sapiens, MCF7; progesterone receptor as biomarker for ERα antagonism in MCF-7
[2] = system: p53 promoter activity (p21 promoter); test: qChIP of ERα-p53 interaction on the p21 promoter in MCF-7; assay type: cell-based, human
MCF-7 cells = test: Cell cycle distribution by flow cytometry; assay type: cell-based, human; settings: 24 h
[3] = system: MNU-induced breast cancer; test: In vivo anticancer screening, MNU-induced mammary tumorigenesis; design: species or system female Wistar rats
[4] = Plasma protein binding determination; assay type: in vitro ADME, rat; settings: rat plasma, 37 °C, read-out: Rat PPB (%free)
Method in brief: (§1)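 Mammary tumours induced in rats by MNU 50 mg/kg i.p. at day 50; after two weeks, compounds given orally at 5 or 50 mg/kg once daily for six weeks. Serum AST, ALT (340 nm), ALP (405 nm) and bilirubin measured; liver homogenate GSH, CAT, MDA by colorimetry; plasma binding by ultrafiltration at 37°C with BCA protein read-out.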

[5] = Serum biochemical markers after treatment of MNU-induced rats; assay type: in vivo, Wistar rats; design: TBC: unit not given here; settings: for ALP (A/L) / ALT (A/L) / AST (U/L) / γ-GT (U/L): serum; for TBC: total bilirubin content
Method in brief: as §1

[6] = Liver oxidative stress markers after treatment of MNU-induced rats; assay type: in vivo, Wistar rats; design: CAT: unit not given here; settings: liver; for CAT: catalase activity; for GSH: reduced glutathione; for SOD (U/mg): superoxide dismutase activity; for TP: total protein content
Method in brief: as §1

[7] = system: MNU-induced breast cancer tissue; test: Histopathology of breast sections; assay type: in vivo, Wistar rats
Method in brief: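 Rats with MNU-induced breast cancer were given selected leads at two concentrations. Breast tissue was examined histopathologically for lobuloalveolar units and epithelial changes, with slides photographed at 200x.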

[8] = Pharmacokinetics study, oral bioavailability; settings: rat
[9] = MTT antiproliferative assay (neutral control); settings: human
[10] = dose 50 mg/kg (compounds per os after MNU; MNU alone i.p.)

CC(=O)c1cc(C(=O)OC2/C=C/C(=O)O[C@@H](O)CCC/C=C/[C@@H]3C[C@H](O)C[C@@H]23)ccc1OCCN1CCC=C(C(=O)O)C1 (stereo partly drawn) [Compound 3DPQ-3, 1-(2-(2-acetyl-4-((((2E,6R,10E,11aS,13S,14aR)-6,13-dihydroxy-4-oxo-4,6,7,8,9,11a,12,13,14,14a-decahydro-1H-cyclopenta[f][1]oxacyclotridecin-1-yl)oxy)carbonyl)phenoxy)ethyl)-1,2,5,6-tetrahydropyridine-3-carboxylic acid]
IC50 [1]: > 100 nM | p53 promoter activity, fold higher than the one provoked by Ral ([2]; higher concentration (1 nM)): 0.61 fold | p53 promoter activity, fold higher than the one provoked by Ral ([2]; lower concentration (0.1 nM)): 0.68 fold | Cell Cycle (%) G0/G1 (MCF-7 cells; 0.1 nM): 72.99 ± 1.32 *^,†,‡,§ % | Cell Cycle (%) G2/M (MCF-7 cells; 0.1 nM): 18.03 ± 1.65 *^,†,‡,§ % | Cell Cycle (%) S (MCF-7 cells; 0.1 nM): 8.98 ± 1.64 *^,†,‡,§ % | Cell Cycle (%) G0/G1 (MCF-7 cells; 1 nM): 75.45 ± 1.53 *^,†,‡,§ % | Cell Cycle (%) G2/M (MCF-7 cells; 1 nM): 14.87 ± 2.43 *^,†,‡,§ % | Cell Cycle (%) S (MCF-7 cells; 1 nM): 9.69 ± 0.94 *^,†,‡,§ % | Tumor Burden (week) ([3]; dose 5 mg/kg per os after MNU): 2.18 ± 0.69 *^,†,‡,‖ week | Tumor Latency (week) ([3]; dose 5 mg/kg per os after MNU): 12 *^,†,‡ week | Tumor Volume (mm^3) ([3]; dose 5 mg/kg per os after MNU): 0.78 ± 0.43 *^,†,‡,‖ mm^3 | Tumor Burden (week) [3, 10]: 1.16 ± 0.64 *^,†,§,┴ week | Tumor Latency (week) [3, 10]: 15 *^,†,§ week | Tumor Volume (mm^3) [3, 10]: 0.66 ± 0.21 *^,†,§,┴ mm^3 | fraction unbound at 5 mg/kg bwt [4]: 0.0134 | fraction unbound at 50 mg/kg bwt [4]: 0.0147 | ALP (A/L) ([5]; dose 5 mg/kg): 87.47±0.21 A/L | ALT (A/L) ([5]; dose 5 mg/kg): 49.84±0.59 A/L | AST (U/L) ([5]; dose 5 mg/kg): 58.43±0.31 U/L | γ-GT (U/L) ([5]; dose 5 mg/kg): 10.36±0.45 U/L | ALP (A/L) ([5]; dose 50 mg/kg): 86.65±0.44 A/L | ALT (A/L) ([5]; dose 50 mg/kg): 55.84±0.79 A/L | AST (U/L) ([5]; dose 50 mg/kg): 61.63±0.47 U/L | γ-GT (U/L) ([5]; dose 50 mg/kg): 11.64±0.84 U/L | TBC ([5]; dose 5 mg/kg): 17.54±0.36 | TBC ([5]; dose 50 mg/kg): 20.32 | CAT ([6]; dose 5 mg/kg): 17.46±0.82 | CAT ([6]; dose 50 mg/kg): 18.32±0.63 | TBARS ([6]; dose 5 mg/kg): 0.24 nmol/mg | TBARS ([6]; dose 50 mg/kg): 0.56 ± 0.32 nmol/mg | GSH ([6]; dose 5 mg/kg): 9.15 mg/g | GSH ([6]; dose 50 mg/kg): 9.74 mg/g | SOD (U/mg) ([6]; dose 5 mg/kg): 7.32±0.18 U/mg | SOD (U/mg) ([6]; dose 50 mg/kg): 11.46±0.36 U/mg | TP ([6]; dose 5 mg/kg): 38.32 g/L | TP ([6]; dose 50 mg/kg): 46.47 g/L | breast section histopathology ([7]; 5 mg/kg of bwt): lobuloalveolar unit (LaU) and cuboidal epithelial cells (CE) | breast section histopathology ([7]; 50 mg/kg of bwt): lobuloalveolar unit (LaU) and cuboidal epithelial cells (CE) | BIO ([8]; oral 5 mg/kg): 90 | BIO ([8]; oral 50 mg/kg): 93 | IC50 at 48 h [9]: > 100 nM

CC(=O)c1cc(C(=O)O[C@@H]2/C=C/C(=O)O[C@@H](O)CCC/C=C/[C@@H]3C[C@H](O)C[C@H]32)ccc1OCCN1CC(C(=O)O)=CCC1=O [Compound 3DPQ-9, 1-(2-(2-acetyl-4-((((1R,2E,6R,10E,11aS,13S,14aR)-6,13-dihydroxy-4-oxo-4,6,7,8,9,11a,12,13,14,14a-decahydro-1H-cyclopenta[f][1]oxacyclotridecin-1-yl)oxy)carbonyl)phenoxy)ethyl)-6-oxo-1,2,5,6-tetrahydropyridine-3-carboxylic acid]
IC50 [1]: > 100 nM | p53 promoter activity, fold higher than the one provoked by Ral ([2]; higher concentration (1 nM)): 0.66 fold | p53 promoter activity, fold higher than the one provoked by Ral ([2]; lower concentration (0.1 nM)): 0.68 fold | Cell Cycle (%) G0/G1 (MCF-7 cells; 0.1 nM): 71.47 ± 0.99 *^,†,‡,§ % | Cell Cycle (%) G2/M (MCF-7 cells; 0.1 nM): 15.56 ± 2.65 *^,†,‡,§ % | Cell Cycle (%) S (MCF-7 cells; 0.1 nM): 12.97 ± 1.65 *^,†,‡,§ % | Cell Cycle (%) G0/G1 (MCF-7 cells; 1 nM): 75.93 ± 152 *^,†,‡,§ % | Cell Cycle (%) G2/M (MCF-7 cells; 1 nM): 10.40 ± 3.54 *^,†,‡,§ % | Cell Cycle (%) S (MCF-7 cells; 1 nM): 13.68 ± 1.74 *^,†,‡,§ % | Tumor Burden (week) ([3]; dose 5 mg/kg per os after MNU): 2.28 ± 0.47 *^,†,‡,‖ week | Tumor Latency (week) ([3]; dose 5 mg/kg per os after MNU): 12 *^,†,‡ week | Tumor Volume (mm^3) ([3]; dose 5 mg/kg per os after MNU): 0.77 ± 0.32 *^,†,‡,‖ mm^3 | Tumor Burden (week) [3, 10]: 1.14 ± 0.65 *^,†,§,┴ week | Tumor Latency (week) [3, 10]: 15 *^,†,§ week | Tumor Volume (mm^3) [3, 10]: 0.40 ± 0.43 *^,†,§,┴ mm^3 | fraction unbound at 5 mg/kg bwt [4]: 0.0128 | fraction unbound at 50 mg/kg bwt [4]: 0.0131 | ALP (A/L) ([5]; dose 5 mg/kg): 125.54±0.21 A/L | ALT (A/L) ([5]; dose 5 mg/kg): 46.58±0.94 A/L | AST (U/L) ([5]; dose 5 mg/kg): 64.52±0.43 U/L | γ-GT (U/L) ([5]; dose 5 mg/kg): 10.32 U/L | ALP (A/L) ([5]; dose 50 mg/kg): 139.42±0.31 A/L | ALT (A/L) ([5]; dose 50 mg/kg): 51.95±0.86 A/L | AST (U/L) ([5]; dose 50 mg/kg): 69.76±0.74 U/L | γ-GT (U/L) ([5]; dose 50 mg/kg): 12.36±0.53 U/L | TBC ([5]; dose 5 mg/kg): 22.33 | TBC ([5]; dose 50 mg/kg): 24.46 | CAT ([6]; dose 5 mg/kg): 10.83±0.46 | CAT ([6]; dose 50 mg/kg): 13.32±0.54 | TBARS ([6]; dose 5 mg/kg): 0.96 nmol/mg | TBARS ([6]; dose 50 mg/kg): 0.96 ± 0.24 nmol/mg | GSH ([6]; dose 5 mg/kg): 8.66 mg/g | GSH ([6]; dose 50 mg/kg): 8.89 mg/g | SOD (U/mg) ([6]; dose 5 mg/kg): 7.74±0.37 U/mg | SOD (U/mg) ([6]; dose 50 mg/kg): 14.43±0.35 U/mg | TP ([6]; dose 50 mg/kg): 39.43 g/L | breast section histopathology ([7]; 5 mg/kg of bwt): lobuloalveolar unit (LaU) and cuboidal epithelial cells (CE) | breast section histopathology ([7]; 50 mg/kg of bwt): lobuloalveolar unit (LaU) and cuboidal epithelial cells (CE) | BIO ([8]; oral 5 mg/kg): 94 ^‡ | BIO ([8]; oral 50 mg/kg): 97 | IC50 at 48 h ([9]; MRC-5 lung fibroblast cells): > 100 nM

CC(=O)c1cc(C(=O)O[C@@H]2/C=C/C(=O)O[C@@H](O)CCC/C=C/[C@@H]3C[C@H](O)C[C@H]32)ccc1OCCN1CCCC(O)C1=O (stereo partly drawn) [Compound 3DPQ-12, (1R,2E,6R,10E,11aS,13S,14aR)-6,13-dihydroxy-4-oxo-4,6,7,8,9,11a,12,13,14,14a-decahydro-1H-cyclopenta[f][1]oxacyclotridecin-1-yl 3-acetyl-4-(2-(3-hydroxy-2-oxopiperidin-1-yl)ethoxy)benzoate]
IC50 [1]: > 100 nM | p53 promoter activity, fold higher than the one provoked by Ral ([2]; higher concentration (1 nM)): 0.55 fold | p53 promoter activity, fold higher than the one provoked by Ral ([2]; lower concentration (0.1 nM)): 0.65 fold | Cell Cycle (%) G0/G1 (MCF-7 cells; 0.1 nM): 77.83 ± 0.92 *^,†,‡,§ % | Cell Cycle (%) G2/M (MCF-7 cells; 0.1 nM): 5.21 ± 2.54 *^,†,‡,§ % | Cell Cycle (%) S (MCF-7 cells; 0.1 nM): 16.96 ± 1.23 *^,†,‡,§ % | Cell Cycle (%) G0/G1 (MCF-7 cells; 1 nM): 80.29 ± 1.24 *^,†,‡,§ % | Cell Cycle (%) G2/M (MCF-7 cells; 1 nM): 2.05 ± 1.43 *^,†,‡,§ % | Cell Cycle (%) S (MCF-7 cells; 1 nM): 17.67 ± 1.32 *^,†,‡,§ % | Tumor Burden (week) ([3]; dose 5 mg/kg per os after MNU): 2.24 ± 0.54 *^,†,‡,‖ week | Tumor Latency (week) ([3]; dose 5 mg/kg per os after MNU): 12 *^,†,‡ week | Tumor Volume (mm^3) ([3]; dose 5 mg/kg per os after MNU): 0.67 ± 0.22 *^,†,‡,‖ mm^3 | Tumor Burden (week) [3, 10]: 0.94 ± 0.35 *^,†,§,┴ week | Tumor Latency (week) [3, 10]: 15 *^,†,§ week | Tumor Volume (mm^3) [3, 10]: 0.34 ± 0.11 *^,†,§,┴ mm^3 | fraction unbound at 5 mg/kg bwt [4]: 0.0124 | fraction unbound at 50 mg/kg bwt [4]: 0.0131 | ALP (A/L) ([5]; dose 5 mg/kg): 132.67±0.43 A/L | ALT (A/L) ([5]; dose 5 mg/kg): 50.99±0.84 A/L | AST (U/L) ([5]; dose 5 mg/kg): 51.54±0.74 U/L | γ-GT (U/L) ([5]; dose 5 mg/kg): 13.53 U/L | ALP (A/L) ([5]; dose 50 mg/kg): 121.33±0.23 A/L | ALT (A/L) ([5]; dose 50 mg/kg): 59.65±0.84 A/L | AST (U/L) ([5]; dose 50 mg/kg): 52.69±0.95 U/L | γ-GT (U/L) ([5]; dose 50 mg/kg): 15.54±0.83 U/L | TBC ([5]; dose 5 mg/kg): 19.28 | TBC ([5]; dose 50 mg/kg): 23.43 | CAT ([6]; dose 5 mg/kg): 14.55±0.51 | CAT ([6]; dose 50 mg/kg): 19.46±0.75 | TBARS ([6]; dose 5 mg/kg): 0.92 nmol/mg | TBARS ([6]; dose 50 mg/kg): 1.05 nmol/mg | GSH ([6]; dose 5 mg/kg): 8.96 mg/g | GSH ([6]; dose 50 mg/kg): 9.02 mg/g | SOD (U/mg) ([6]; dose 5 mg/kg): 5.43±0.25 U/mg | SOD (U/mg) ([6]; dose 50 mg/kg): 13.32±0.43 U/mg | TP ([6]; dose 5 mg/kg): 336.12 g/L | TP ([6]; dose 50 mg/kg): 389.35 g/L | breast section histopathology ([7]; 5 mg/kg of bwt): lobuloalveolar unit (LaU) and cuboidal epithelial cells (CE) | breast section histopathology ([7]; 50 mg/kg of bwt): lobuloalveolar unit (LaU) and cuboidal epithelial cells (CE) | BIO ([8]; oral 5 mg/kg): 93 ^‡ | BIO ([8]; oral 50 mg/kg): 96 | IC50 at 48 h [9]: > 100 nM
